Measured values as given in US20250230193A1, “CYCLIC COMPOUND HAVING SELECTIVE KRAS INHIBITORY EFFECT ON HRAS AND NRAS” (CHUGAI SEIYAKU KABUSHIKI KAISHA, priority 2022, published 2025).
*1 amine or outer side, *2 acyl side, *3 side chain or, on linkers, in order; H or OH if unused. Where a SMILES comes first, the peptide text is derived from it. Bridges are numbered along the chain shown (N, C = ends). [ ]: non-standard residue; d: D form. The star is where a group is joined. hPhe(3-Cl-4-CF3) = N[C@@H](CCc1ccc(C(F)(F)F)c(Cl)c1)C(=O)O; X41 = Cc1ccc(C[C@@H](C(=O)[*:2])N(CCC(F)(F)F)[*:1])cc1; NPrPhe(4-CF3) = CCCN[C@@H](Cc1ccc(C(F)(F)F)cc1)C(=O)O; NMeGly(cPent) = CN[C@H](C(=O)O)C1CCCC1; NMeD = CN[C@@H](CC(=O)O)C(=O)O; NMeL = CN[C@@H](CC(C)C)C(=O)O; Morpholide = C1CN(*)CCO1; NMeA = CN[C@@H](C)C(=O)O; Ac5c = NC1(C(=O)O)CCCC1; Aze = O=C(O)[C@@H]1CCN1; Ac3c = NC1(C(=O)O)CC1; Sar = CNCC(=O)O

Legend:
[1] = target: GDP-bound NRAS wild-type protein (Homo sapiens, UniProt P01111); experiment: Binding to NRAS by surface plasmon resonance (SPR), Single Cycle Kinetics; conditions: SPR; for NRAS/KRAS (ratio of KD value for NRAS to KD value for KRAS) / NRAS/KRAS (ratio of KD value with respect to NRAS to KD value with respect to KRAS): GDP-bound NRAS wild-type vs GDP-bound KRAS wild-type
[2] = target: GDP-bound HRAS wild-type protein (Homo sapiens, UniProt P01112); experiment: Binding to HRAS by surface plasmon resonance (SPR), Single Cycle Kinetics; conditions: SPR; for HRAS/KRAS (ratio of KD value for HRAS to KD value for KRAS) / HRAS/KRAS (ratio of KD value with respect to HRAS to KD value with respect to KRAS): GDP-bound HRAS wild-type vs GDP-bound KRAS wild-type
Chain of GDP-bound HRAS wild-type protein (P01112 whole entry): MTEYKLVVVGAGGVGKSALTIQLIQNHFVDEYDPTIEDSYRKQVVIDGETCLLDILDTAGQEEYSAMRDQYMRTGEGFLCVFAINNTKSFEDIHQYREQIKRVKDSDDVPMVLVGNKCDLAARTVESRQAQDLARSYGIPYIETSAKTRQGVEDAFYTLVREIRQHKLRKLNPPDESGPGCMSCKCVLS

Chain of GDP-bound NRAS wild-type protein (P01111 whole entry): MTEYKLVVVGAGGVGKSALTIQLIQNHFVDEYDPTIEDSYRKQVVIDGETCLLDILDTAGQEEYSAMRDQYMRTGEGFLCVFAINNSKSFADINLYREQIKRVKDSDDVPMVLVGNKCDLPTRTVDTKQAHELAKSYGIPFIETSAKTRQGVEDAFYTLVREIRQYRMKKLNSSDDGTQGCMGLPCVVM

Compound: CCCN1C(=O)[C@@H]2CCN2C(=O)[C@H](C)N(C)C(=O)[C@H]([C@@H](C)CC)NC(=O)[C@H](CC(C)C)N(C)C(=O)C[C@@H](C(=O)N2CCOCC2)N(C)C(=O)[C@H](C2CCCC2)N(C)C(=O)C2(CC2)NC(=O)[C@@H]2CCCN2C(=O)[C@H](CCc2ccc(C(F)(F)F)c(Cl)c2)NC(=O)CN(C)C(=O)[C@@H]1Cc1ccc(C(F)(F)F)cc1 [PP0224] ([NMeL]I[NMeA][Aze][NPrPhe(4-CF3)][Sar][hPhe(3-Cl-4-CF3)]P[Ac3c][NMeGly(cPent)][NMeD]-Morpholide; lactam N-11)
- NRAS/KRAS (ratio of KD for GDP-bound NRAS wild-type to KD for KRAS) ([1]; KD ratio NRAS/KRAS): C (A compound having a KD ratio of 0.1 or more and less than 3 is denoted as C)
- HRAS/KRAS (ratio of KD for GDP-bound HRAS wild-type to KD for KRAS) ([2]; KD ratio HRAS/KRAS): B (a compound having 3 or more and less than 10 is denoted as B)

Compound: CCO[C@@H]1C[C@H]2C(=O)NC3(CC(C)(C)C3)C(=O)N(CC)[C@@H](C3CCCC3)C(=O)N(C)[C@H](C(=O)N(C)C)CC(=O)N(C)[C@@H](CC)C(=O)N[C@@H]([C@@H](C)CC)C(=O)N(C)CC(=O)N(C)[C@H]3C/C=C\CCN(C3=O)[C@@H](Cc3ccc(C(F)(F)F)cc3)C(=O)N(C)CC(=O)N[C@@H](CCc3cc(F)c(C(F)(F)F)c(F)c3)C(=O)N2C1 [PP1913]
- NRAS/KRAS (ratio of KD value for NRAS to KD value for KRAS) [1]: A (a compound having 10 or more and less than 20 is denoted as A)
- HRAS/KRAS (ratio of KD value for HRAS to KD value for KRAS) [2]: A (a compound having 10 or more and less than 20 is denoted as A)

Compound: CCO[C@@H]1C[C@H]2C(=O)NC3(CCC3)C(=O)N(C)[C@@H](C(CC)CC)C(=O)N(C)[C@H](C(=O)N3CCCC3)CC(=O)N(C)[C@H]3CCCC/C=C/c4ccc(cc4)C[C@@H](C(=O)N(C)CC(=O)N[C@@H](CCc4ccc(Cl)c(Cl)c4)C(=O)N2C1)N1CC/C=C\C[C@@H](C1=O)N(C)C(=O)CN(C)C(=O)[C@H]([C@@H](C)CC)NC3=O [PP3047, (1S,7S,11R,13S,19S,22S,26S,29S,35S,37Z,47E)-7-[2-(3,4-dichlorophenyl)ethyl]-11-ethoxy-19-(1-ethylpropyl)-3,18,21,25,31,34-hexamethyl-29-[(1S)-1-methylpropyl]-22-(pyrrolidine-1-carbonyl)spiro[3,6,9,15,18,21,25,28,31,34,41-undecazapentacyclo[24.15.11.2^43,46.1^35,41.0^9,13]pentapentaconta-37,43(54),44,46(53),47-pentaene-16,1′-cyclobutane]-2,5,8,14,17,20,24,27,30,33,55-undecone]
- NRAS/KRAS (ratio of KD value with respect to GDP-bound NRAS wild-type protein to KD value with respect to KRAS) ([1]; KD ratio NRAS/KRAS, GDP-bound wild-type proteins): AA (a compound having 20 or more is denoted as AA)
- HRAS/KRAS (ratio of KD value with respect to GDP-bound HRAS wild-type protein to KD value with respect to KRAS) ([2]; KD ratio HRAS/KRAS, GDP-bound wild-type proteins): A (a compound having 10 or more and less than 20 is denoted as A)

Compound: CCCOC[C@H]1C(=O)N[C@@H]([C@@H](C)CC)C(=O)N(C)CC(=O)N(C)[C@H]2C/C=C\CCN(C2=O)[C@@H](CC2CCC(F)(F)CC2)C(=O)N(C)CC(=O)N[C@@H](CCc2ccc(C(F)(F)F)c(OC)c2)C(=O)N2C[C@@H](C)C[C@H]2C(=O)NC2(CC(C)(C)C2)C(=O)N(C)[C@@H](C(CC)CC)C(=O)N(C)[C@H](C(=O)N(C)C)CC(=O)N1C [PP2483]
- NRAS/KRAS (ratio of KD value with respect to NRAS to KD value with respect to KRAS) [1]: A (a compound having 10 or more and less than 20 is denoted as A)
- HRAS/KRAS (ratio of KD value with respect to HRAS to KD value with respect to KRAS) [2]: A (a compound having 10 or more and less than 20 is denoted as A)

Compound: CC[C@H](C)[C@@H]1NC(=O)[C@H](CC(C)C)N(C)C(=O)C[C@@H](C(=O)N2CCOCC2)N(C)C(=O)[C@H](C2CCCC2)N(C)C(=O)C2(CCCC2)NC(=O)[C@@H]2CCCN2C(=O)[C@H](CCc2ccc(C(F)(F)F)c(Cl)c2)NC(=O)CN(C)C(=O)[C@H](Cc2ccc(C)cc2)N(CCC(F)(F)F)C(=O)[C@@H]2CCN2C(=O)[C@H](C)N(C)C1=O [PP0091] ([NMeL]I[NMeA][Aze][X41][Sar][hPhe(3-Cl-4-CF3)]P[Ac5c][NMeGly(cPent)][NMeD]-Morpholide; lactam N-11)
- NRAS/KRAS (ratio of KD for GDP-bound NRAS wild-type to KD for KRAS) ([1]; KD ratio NRAS/KRAS): C (A compound having a KD ratio of 0.1 or more and less than 3 is denoted as C)
- HRAS/KRAS (ratio of KD for GDP-bound HRAS wild-type to KD for KRAS) ([2]; KD ratio HRAS/KRAS): B (a compound having 3 or more and less than 10 is denoted as B)

Compound: CCO[C@@H]1C[C@H]2C(=O)NC3(CC(C)(C)C3)C(=O)N(C)[C@@H](C(CC)CC)C(=O)N(C)[C@H](C(=O)N3CCCC3)CC(=O)N(C)[C@@H](C)C(=O)N[C@@H]([C@@H](C)CC)C(=O)N(C)CC(=O)N(C)[C@H]3C/C=C\CCN(C3=O)[C@@H](Cc3ccc(C)cc3)C(=O)N(C)CC(=O)N[C@@H](CCc3ccc(Cl)c(Cl)c3)C(=O)N2C1 [PP2187]
- NRAS/KRAS (ratio of KD value with respect to NRAS to KD value with respect to KRAS) [1]: AA (a compound having 20 or more is denoted as AA)
- HRAS/KRAS (ratio of KD value with respect to HRAS to KD value with respect to KRAS) [2]: A (a compound having 10 or more and less than 20 is denoted as A)

Compound: CCCN(C)C(=O)[C@@H]1CC(=O)N(C)[C@@H](C2CC2)C(=O)N[C@@H]([C@@H](C)CC)C(=O)N(C)CC(=O)N(C)[C@H]2C/C=C\CCN(C2=O)[C@@H](Cc2ccc(C(F)(F)F)cc2)C(=O)N(C)CC(=O)N[C@@H](CCc2ccc(C(F)(F)F)c(OC)c2)C(=O)N2C[C@H](OCC)C[C@H]2C(=O)NC2(CC(C)(C)C2)C(=O)N(C)[C@@H](C2CCCC2)C(=O)N1C [PP1983]
- NRAS/KRAS (ratio of KD value for NRAS to KD value for KRAS) [1]: AA (a compound having 20 or more is denoted as AA)
- HRAS/KRAS (ratio of KD value for HRAS to KD value for KRAS) [2]: A (a compound having 10 or more and less than 20 is denoted as A)
